Consider one substance from patent publication US4377578A, “Piperazine derivatives” (priority 1981, dated 1983).

For assay [1], the system named is anaphylactic shock in guinea pigs sensitized to ovalbumin. Description: Anaphylaxis in guinea pigs: protection against death (survival) after ovalbumin challenge. In kind it is in vivo, guinea pig. To be noted: Table I-b; estimated ED50, oral, protection against death after i.v. 0.6 mg ovalbumin. Here is the method: The anti-anaphylactic and antihistaminic effects of the subject compounds (I) and salts thereof are studied "in vivo" in guinea pigs.
Guinea pigs, weighing between 400 and 500 g, are sensitized to ovalbumin by subplantar (s.p.) injection of 0.05 ml of antiserum in the left hind paw. The animals are then starved and orally treated, 24 hours after the sensitization, with saline (=control animals) or a particular dose of the compound under investigation.
The histamine injection (at a dose of 50 μg) was given s.p. in the right hind paw 2 hours after the oral pretreatment with the compound. The diameters of both hind paws are first measured before the histamine injection is given and again 10 minutes thereafter. The animals are challenged intravenously with 0.6 mg of ovalbumin 30 minutes after the histamine injection. All control animals develop tyical primary anaphylactic shock symptoms (coughing, difficult breathing, convulsions) and 85% of these control animals die within 15 minutes after the ovalbumin injection. Protection against death is used as the criterion for possible drug effects and the estimated ED50 -value, i.e. the oral dose whereby the protection is observed in 50% of the guinea pigs, is listed in the tables below.

Assay [2] has as its system histamine paw oedema in guinea pigs. The assay can be described thus: Histamine paw oedema in guinea pigs. Format: in vivo, guinea pig. Conditions: Table I-b, 2 hours before s.p. histamine 50 μg, oedema below 10 units at 10 minutes. As for the experimental part: Guinea pigs, weighing between 400 and 500 g, are sensitized to ovalbumin by subplantar (s.p.) injection of 0.05 ml of antiserum in the left hind paw. The animals are then starved and orally treated, 24 hours after the sensitization, with saline (=control animals) or a particular dose of the compound under investigation. The histamine injection (at a dose of 50 μg) was given s.p. in the right hind paw 2 hours after the oral pretreatment with the compound.

Assay [3] has as its system histamine-induced spasms of guinea-pig ileum strips. The assay can be described thus: Anti-histamine activity in vitro (guinea-pig ileum). Conditions: Table I-b; histamine 0.5 mg/liter, 5 minutes incubation, significant inhibition (50%) of contraction. Format: cell-based. Here is the method: The histamine-(0.5 mg/liter) induced spasms are recorded Kymographically with an isotonic lever giving a 5-fold magnification.

In the case of “1-[3-{4-[(3-chlorophenyl)phenylmethyl]-1-piperazinyl}propyl]-1H-benzimidazole trihydrochloride.hydrate.hemi-2-propanolate [I-b: M=H, R1=H, (CH2)4, R6=3-Cl, R7=H]”, the “Anaphylaxis in guinea pigs oral effective dose in mg/kg: Survival” value in assay [1] is listed as 1.25 mg/kg. For the same substance, the “Anaphylaxis in guinea pigs oral effective dose in mg/kg: Histamine oedema” value in assay [2] came out at 1.25 mg/kg. Further, the “Histamine in "vitro" (ileum) effective conc.” value in assay [3] turned out to be 0.01 mg/L.
